Assay results taken from patent US20210255193A1, “LYSINE REACTIVE PROBES AND USES THEREOF” (The Scripps Research Institute, priority 2017, published 2021).

Assays:
Experiment in all cases: competitive isoTOP-ABPP
Format in all cases: binding
[1] = molecular target: T1, MRPL12 39S ribosomal protein L12, mitochondrial (Homo sapiens, UniProt P52815); settings: for isoTOP-ABPP ratio (R) at liganded lysine P52815_K87 / R value (DMSO/fragment) for probe 1 labeling: 50 uM, in vitro; for isoTOP-ABPP ratio (R) at liganded lysine P52815_K87: sol, 231; for R value (DMSO/fragment) for probe 1 labeling: P52815_K87, 231 sol
T1 construct: isoTOP-ABPP experiments performed in cell lysates (in vitro); endogenous in cells; host or cells: soluble proteome of human cancer cell lines (MDA-MB-231, Ramos, Jurkat)
Summary of the method: (§1)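 Competition format: fragment (50 μM activated ester, 100 μM guanidinylating agent) versus vehicle in lysate, then lysine probe STP-alkyne at 0.1 mM for 1 h. Quantitation by light/heavy TEV-tag MS1 peak areas, reported as R.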

[2] = molecular target: T2, LDHB L-lactate dehydrogenase B chain (Homo sapiens, UniProt P07195); settings: for R value (DMSO/fragment) for probe 1 labeling: 231 sol
T2 construct: isoTOP-ABPP experiments performed in cell lysates (in vitro); endogenous in cells; host or cells: MDA-MB-231 soluble lysate
T2 sequence (P07195 whole entry, the tested form may be a part): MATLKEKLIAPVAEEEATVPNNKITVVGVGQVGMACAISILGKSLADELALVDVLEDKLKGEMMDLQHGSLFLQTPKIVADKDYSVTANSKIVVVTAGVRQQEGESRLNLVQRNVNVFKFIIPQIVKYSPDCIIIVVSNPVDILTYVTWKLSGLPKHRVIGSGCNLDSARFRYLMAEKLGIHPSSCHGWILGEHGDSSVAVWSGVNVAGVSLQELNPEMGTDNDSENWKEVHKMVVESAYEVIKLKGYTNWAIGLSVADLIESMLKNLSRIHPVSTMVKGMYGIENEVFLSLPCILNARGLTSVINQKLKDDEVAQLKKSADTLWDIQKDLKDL
Summary of the method: as §1

[3] = molecular target: T3, ARL6IP1 ADP-ribosylation factor-like protein 6-interacting (Homo sapiens, UniProt Q15041); settings: for isoTOP-ABPP ratio (R) at liganded lysine Q15041_K188 / R value (DMSO/fragment) for probe 1 labeling: 50 uM, in vitro; for isoTOP-ABPP ratio (R) at liganded lysine Q15041_K188: sol, 231; for R value (DMSO/fragment) for probe 1 labeling: Q15041_K188, 231 sol
T3 construct: isoTOP-ABPP experiments performed in cell lysates (in vitro); endogenous in cells; host or cells: soluble proteome of human cancer cell lines (MDA-MB-231; Ramos and Jurkat also prepared)
T3 sequence (Q15041 whole entry, the tested form may be a part): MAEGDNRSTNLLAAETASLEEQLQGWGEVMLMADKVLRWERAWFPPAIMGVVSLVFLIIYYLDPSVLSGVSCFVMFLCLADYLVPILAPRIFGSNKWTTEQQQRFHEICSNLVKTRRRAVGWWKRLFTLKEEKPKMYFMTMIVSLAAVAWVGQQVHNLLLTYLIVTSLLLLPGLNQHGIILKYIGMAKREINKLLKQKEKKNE
Summary of the method: as §1

FAM136A Protein FAM136A = molecular target: T4, FAM136A Protein FAM136A (Homo sapiens, UniProt Q96C01); settings: for isoTOP-ABPP ratio (R) at liganded lysine Q96C01_K99 / R value (DMSO/fragment) for probe 1 labeling: 50 uM, in vitro; for isoTOP-ABPP ratio (R) at liganded lysine Q96C01_K99: sol, 231; for R value (DMSO/fragment) for probe 1 labeling: Q96C01_K99, 231 sol
T4 construct: isoTOP-ABPP experiments performed in cell lysates (in vitro); endogenous in cells; host or cells: soluble proteome of human cancer cell lines (MDA-MB-231; Ramos and Jurkat also prepared)
T4 sequence (Q96C01 whole entry, the tested form may be a part): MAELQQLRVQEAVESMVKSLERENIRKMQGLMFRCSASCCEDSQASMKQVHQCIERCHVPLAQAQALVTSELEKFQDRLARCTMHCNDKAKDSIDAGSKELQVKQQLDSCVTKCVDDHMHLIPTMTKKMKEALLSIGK
Summary of the method: as §1

[4] = molecular target: T5, IFIT3 Interferon-induced protein with tetratricopeptide (Homo sapiens, UniProt O14879); settings: for isoTOP-ABPP ratio (R) at liganded lysine O14879_K148 / R value (DMSO/fragment) for probe 1 labeling: 50 uM, in vitro; for isoTOP-ABPP ratio (R) at liganded lysine O14879_K148: sol, 231; for R value (DMSO/fragment) for probe 1 labeling: O14879_K148, 231 sol
T5 construct: isoTOP-ABPP experiments performed in cell lysates (in vitro); endogenous in cells; host or cells: MDA-MB-231 soluble lysate
T5 sequence (O14879 1-490): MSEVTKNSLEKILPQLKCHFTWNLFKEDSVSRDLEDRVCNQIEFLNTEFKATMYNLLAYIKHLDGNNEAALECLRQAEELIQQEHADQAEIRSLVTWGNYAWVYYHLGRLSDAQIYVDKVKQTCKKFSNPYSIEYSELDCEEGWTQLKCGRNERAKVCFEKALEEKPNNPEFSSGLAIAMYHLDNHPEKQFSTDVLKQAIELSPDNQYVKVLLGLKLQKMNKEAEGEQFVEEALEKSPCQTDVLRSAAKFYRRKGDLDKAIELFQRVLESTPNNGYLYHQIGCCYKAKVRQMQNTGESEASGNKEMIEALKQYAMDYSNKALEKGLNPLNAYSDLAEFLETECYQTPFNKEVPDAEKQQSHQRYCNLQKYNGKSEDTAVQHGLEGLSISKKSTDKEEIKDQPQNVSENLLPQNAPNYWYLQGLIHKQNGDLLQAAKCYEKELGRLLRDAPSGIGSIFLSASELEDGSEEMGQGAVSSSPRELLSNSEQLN
Summary of the method: as §1

Row | SMILES | isoTOP-ABPP ratio (R) at liganded lysine P52815_K87 [1] | isoTOP-ABPP ratio (R) at liganded lysine P07195_K82 ([2]; 50 uM, in vitro, sol, 231) | isoTOP-ABPP ratio (R) at liganded lysine Q15041_K188 [3] | isoTOP-ABPP ratio (R) at liganded lysine Q96C01_K99 (FAM136A Protein FAM136A) | isoTOP-ABPP ratio (R) at liganded lysine O14879_K148 [4] | R value (DMSO/fragment) for probe 1 labeling [1] | R value (DMSO/fragment) for probe 1 labeling ([2]; P07195_K244, 50 uM, in vitro) | R value (DMSO/fragment) for probe 1 labeling [3] | R value (DMSO/fragment) for probe 1 labeling (FAM136A Protein FAM136A) | R value (DMSO/fragment) for probe 1 labeling [4] | other results
1 | O=C(Oc1ccc([N+](=O)[O-])cc1[N+](=O)[O-])C(c1ccccc1)(c1ccccc1)c1ccccc1 [fragment 42, 2,4-Dinitrophenyl 2,2,2-triphenylacetate] | 1.0 | 20.0 | 1.1 | 0.9 | 0.8 | – | – | – | – | – | –
2 | O=C(ON1C(=O)CCC1=O)c1cc(C(F)(F)F)cc(C(F)(F)F)c1 [fragment 46, 3,5-Bis(trifluoromethyl)benzoic acid NHS ester] | – | – | – | – | – | – | – | – | – | – | isoTOP-ABPP ratio, lysine P52815_K87 ([1]; 50 uM_231_sol_in vitro, possible other lysine B4DLN1_K87, P52815_K91): 0.6; isoTOP-ABPP ratio, lysine P07195_K82 ([2]; 50 uM_231_sol_in vitro): 0.7; isoTOP-ABPP ratio, lysine P07195_K244 ([2]; 50 uM_231_sol_in vitro): 0.8; isoTOP-ABPP ratio, lysine Q15041_K188 ([3]; 50 uM_231_sol_in vitro): 1.2; isoTOP-ABPP ratio, lysine Q96C01_K99 (FAM136A Protein FAM136A; 50 uM_231_sol_in vitro): 0.6; isoTOP-ABPP ratio, lysine O14879_K148 ([4]; 50 uM_231_sol_in vitro): 2.2
3 | O=C(Oc1c(F)c(F)c(F)c(F)c1F)C(c1ccccc1)c1ccccc1 [fragment 20, Pentafluorophenyl 2,2-diphenylacetate] | – | – | – | – | – | 0.9 | 1.0 | 1.8 | 0.9 | 0.7 | R value (DMSO/fragment) for probe 1 labeling ([2]; P07195_K82, 50 uM, in vitro): 1.2
4 | O=C(Oc1c(F)c(F)c(F)c(F)c1F)c1cc(C(F)(F)F)cc(C(F)(F)F)c1 [fragment 21, Pentafluorophenyl 3,5-bis(trifluoromethyl)benzoate] | – | – | – | – | – | 0.6 | 1.0 | 3.9 | 1.1 | 1.4 | –
5 | O=C(Oc1ccc([N+](=O)[O-])cc1[N+](=O)[O-])c1ccc(Oc2ccccc2)cc1 [fragment 39, 2,4-Dinitrophenyl 4-phenoxybenzoate] | 1.1 | 20.0 | 1.7 | 0.8 | 1.4 | – | – | – | – | – | isoTOP-ABPP ratio (R) at liganded lysine P07195_K244 ([2]; 50 uM, in vitro, sol, 231): 1.0
